Measured values as given in ChEMBL document CHEMBL4024727, “Synthesis and antimycobacterial screening of new thiazolyl-oxazole derivatives” (Eur J Med Chem, 2017).
Values after ≈ are worked out from the molar mass of the structure shown.

Columns and labels:
[1] = system: Bacillus subtilis; experiment: Growth inhibition of Bacillus subtilis NCIM 2162 at 10 ug/ml measured after 12 hrs relative to control; type: functional; conditions: NCIM 2162, 12 h, read-out: GI
[2] = Selectivity index, ratio of GI50 for human HeLa cells to MIC for Mycobacterium tuberculosis H37Ra ATCC 25177 dormant stage; type: toxicity, cell-based; conditions: read-out: Selectivity Index
[3] = system: Pseudomonas fluorescens; experiment: Growth inhibition of Pseudomonas fluorescens NCIM 2059 at 30 ug/ml measured after 8 hrs relative to control; type: functional; conditions: NCIM 2059, 8 h, read-out: GI
[4] = system: Mycobacterium tuberculosis; experiment: Growth inhibition of Mycobacterium bovis BCG ATCC 35743 at 30 ug/ml by nitrate reductase based two-fold dilution assay relative to control; type: functional; conditions: BCG str. ATCC 35743, read-out: GI
[5] = system: Staphylococcus aureus; experiment: Growth inhibition of Staphylococcus aureus NCIM 2602 at 1 ug/ml measured after 12 hrs relative to control; type: functional; conditions: NCIM 2602, 12 h, read-out: GI
[6] = system: Escherichia coli; experiment: Antibacterial activity against Escherichia coli NCIM 2576 measured after 8 hrs; type: functional; conditions: NCIM 2576, 8 h
[7] = system: Staphylococcus aureus; experiment: Antibacterial activity against Staphylococcus aureus NCIM 2602 measured after 12 hrs; type: functional; conditions: NCIM 2602, 12 h
[8] = (§1) Growth inhibition of human PANC1 cells by MTT assay; type: cell-based, PANC-1; conditions: PANC-1 cells
[9] = system: PANC-1; experiment: as §1; type: cell-based; conditions: panc-1
[10] = system: Escherichia coli; experiment: Growth inhibition of Escherichia coli NCIM 2576 at 1 ug/ml measured after 8 hrs relative to control; type: functional; conditions: NCIM 2576, 8 h, read-out: GI
[11] = system: Escherichia coli; experiment: Growth inhibition of Escherichia coli NCIM 2576 at 30 ug/ml measured after 8 hrs relative to control; type: functional; conditions: NCIM 2576, 8 h, read-out: GI
[12] = system: Bacillus subtilis; experiment: Growth inhibition of Bacillus subtilis NCIM 2162 at 30 ug/ml measured after 12 hrs relative to control; type: functional; conditions: NCIM 2162, 12 h, read-out: GI
[13] = system: Bacillus subtilis; experiment: Growth inhibition of Bacillus subtilis NCIM 2162 at 1 ug/ml measured after 12 hrs relative to control; type: functional; conditions: NCIM 2162, 12 h, read-out: GI
[14] = Selectivity index, ratio of GI50 for human A549 cells to MIC for Mycobacterium tuberculosis H37Ra ATCC 25177 dormant stage; type: toxicity; conditions: read-out: Selectivity Index
[15] = system: Mycobacterium tuberculosis; experiment: Antitubercular activity against Mycobacterium bovis BCG ATCC 35743 dormant stage by nitrate reductase based two-fold dilution assay; type: functional; conditions: BCG str. ATCC 35743
[16] = system: Pseudomonas fluorescens; experiment: Growth inhibition of Pseudomonas fluorescens NCIM 2059 at 1 ug/ml measured after 8 hrs relative to control; type: functional; conditions: NCIM 2059, 8 h, read-out: GI
[17] = Selectivity index, ratio of GI50 for human PANC1 cells to MIC for Mycobacterium bovis BCG ATCC 35743 dormant stage; type: toxicity; conditions: PANC-1 cells, read-out: Selectivity Index
[18] = Selectivity index, ratio of GI50 for human HeLa cells to MIC for Mycobacterium bovis BCG ATCC 35743 dormant stage; type: toxicity, cell-based; conditions: read-out: Selectivity Index
[19] = system: Staphylococcus aureus; experiment: Growth inhibition of Staphylococcus aureus NCIM 2602 at 10 ug/ml measured after 12 hrs relative to control; type: functional; conditions: NCIM 2602, 12 h, read-out: GI
[20] = system: Mycobacterium tuberculosis; experiment: Growth inhibition of Mycobacterium tuberculosis H37Ra ATCC 25177 at 10 ug/ml by XTT dye based two-fold dilution method relative to control; type: functional; conditions: read-out: GI
[21] = Selectivity index, ratio of GI50 for human PANC1 cells to MIC for Mycobacterium tuberculosis H37Ra ATCC 25177 dormant stage; type: toxicity; conditions: PANC-1 cells, read-out: Selectivity Index
[22] = system: Pseudomonas fluorescens; experiment: Antibacterial activity against Pseudomonas fluorescens NCIM 2059 measured after 8 hrs; type: functional; conditions: NCIM 2059, 8 h
[23] = system: Bacillus subtilis; experiment: Antibacterial activity against Bacillus subtilis NCIM 2162 measured after 12 hrs; type: functional; conditions: NCIM 2162, 12 h
[24] = (§2) Growth inhibition of human HeLa cells by MTT assay; type: cell-based; conditions: HeLa cells
[25] = system: HeLa; experiment: as §2; type: cell-based; conditions: hela
[26] = system: Staphylococcus aureus; experiment: Growth inhibition of Staphylococcus aureus NCIM 2602 at 30 ug/ml measured after 12 hrs relative to control; type: functional; conditions: NCIM 2602, 12 h, read-out: GI
[27] = system: Mycobacterium tuberculosis; experiment: Growth inhibition of Mycobacterium bovis BCG ATCC 35743 at 10 ug/ml by nitrate reductase based two-fold dilution assay relative to control; type: functional; conditions: BCG str. ATCC 35743, read-out: GI
[28] = (§3) Growth inhibition of human A549 cells by MTT assay; type: cell-based; conditions: A549 cells
[29] = system: A549; experiment: as §3; type: cell-based; conditions: a549
[30] = system: Mycobacterium tuberculosis; experiment: Growth inhibition of Mycobacterium tuberculosis H37Ra ATCC 25177 at 3 ug/ml by XTT dye based two-fold dilution method relative to control; type: functional; conditions: read-out: GI
[31] = system: Mycobacterium tuberculosis; experiment: Growth inhibition of Mycobacterium bovis BCG ATCC 35743 at 1 ug/ml by nitrate reductase based two-fold dilution assay relative to control; type: functional; conditions: BCG str. ATCC 35743, read-out: GI
[32] = system: Escherichia coli; experiment: Growth inhibition of Escherichia coli NCIM 2576 at 10 ug/ml measured after 8 hrs relative to control; type: functional; conditions: NCIM 2576, 8 h, read-out: GI
[33] = system: Pseudomonas fluorescens; experiment: Growth inhibition of Pseudomonas fluorescens NCIM 2059 at 10 ug/ml measured after 8 hrs relative to control; type: functional; conditions: NCIM 2059, 8 h, read-out: GI
[34] = Selectivity index, ratio of GI50 for human A549 cells to MIC for Mycobacterium bovis BCG ATCC 35743 dormant stage; type: toxicity; conditions: read-out: Selectivity Index
[35] = system: Mycobacterium tuberculosis; experiment: Growth inhibition of Mycobacterium tuberculosis H37Ra ATCC 25177 at 30 ug/ml by XTT dye based two-fold dilution method relative to control; type: functional; conditions: read-out: GI
[36] = system: Mycobacterium tuberculosis; experiment: Antitubercular activity against Mycobacterium tuberculosis H37Ra ATCC 25177 dormant stage by XTT dye based two-fold dilution method; type: functional

Row | Structure (SMILES) | inhibition of growth at 10 µg/mL [1] [%] | selectivity ratio [2] | inhibition of growth at 30 µg/mL [3] [%] | inhibition of growth at 30 µg/mL [4] [%] | inhibition of growth at 1 µg/mL [5] [%] | MIC [6] | MIC [7] | GI50 [8] [µg/mL] | GI90 [9] [µg/mL] | inhibition of growth at 1 µg/mL [10] [%] | inhibition of growth at 30 µg/mL [11] [%] | inhibition of growth at 30 µg/mL [12] [%] | inhibition of growth at 1 µg/mL [13] [%] | selectivity ratio [14] | IC50 [15] [nM] | MIC90 [15] [µM] | inhibition of growth at 1 µg/mL [16] [%] | selectivity ratio [17] | selectivity ratio [18] | inhibition of growth at 10 µg/mL [19] [%] | further results
1 | Cc1nc(-c2ccc(F)cc2)oc1-c1csc(Cc2cccc(Cl)c2)n1 | 85.4 | 59 | 93.3 | 97 | 71.7 | 69.6 µM | 55.6 µM | > 250 | > 250 | 70.5 | 91.2 | 93.7 | 79.7 | 88 | 360 | 6.26 (≈ 2.41 µg/mL) | 72.5 | 104 | 70 | 82.4 | inhibition of growth at 10 µg/mL [20]: 92%; selectivity ratio [21]: 88; MIC [22]: 57.4 µM; MIC [23]: 53.8 µM; GI50 [24]: 168 µg/mL (≈ 436 µM); GI90 [25]: > 250 µg/mL; inhibition of growth at 30 µg/mL [26]: 95.6%; inhibition of growth at 10 µg/mL [27]: 95%; GI50 [28]: > 250 µg/mL; GI90 [29]: > 250 µg/mL; inhibition of growth at 3 µg/mL [30]: 93%; inhibition of growth at 1 µg/mL [31]: 98%; inhibition of growth at 10 µg/mL [32]: 86.1%; inhibition of growth at 10 µg/mL [33]: 85.7%; selectivity ratio [34]: 104; inhibition of growth at 30 µg/mL [35]: 96%; IC50 [36]: 230 nM; MIC90 [36]: 7.38 µM (≈ 2.84 µg/mL)
2 | Cc1nc(-c2ccccc2)oc1-c1csc(Cc2cccc(Cl)c2)n1 | 86.8 | 54 | 95.8 | 95 | 73.2 | 15.4 µg/mL | 25.6 µg/mL | > 250 | > 250 | 74.7 | 95.9 | 92 | 80.3 | 195 | 760 | 3.76 (≈ 1.38 µg/mL) | 79.3 | 181 | 50 | 81.3 | inhibition of growth at 10 µg/mL [20]: 97%; selectivity ratio [21]: 195; MIC [22]: 20.9 µg/mL; MIC [23]: 21.7 µg/mL; GI50 [24]: 68.7 µg/mL (≈ 187 µM); GI90 [25]: > 250 µg/mL; inhibition of growth at 30 µg/mL [26]: 92.2%; inhibition of growth at 10 µg/mL [27]: 94%; GI50 [28]: > 250 µg/mL; GI90 [29]: > 250 µg/mL; inhibition of growth at 3 µg/mL [30]: 96%; inhibition of growth at 1 µg/mL [31]: 94%; inhibition of growth at 10 µg/mL [32]: 88.7%; inhibition of growth at 10 µg/mL [33]: 82.7%; selectivity ratio [34]: 181; inhibition of growth at 30 µg/mL [35]: 98%; IC50 [36]: 230 nM; MIC90 [36]: 3.49 µM (≈ 1.28 µg/mL)
